System: ascitic form of Gardner lymphosarcoma (IP-LsG)
Assay: anti-cancer screening in mice with ascitic Gardner lymphosarcoma
Type: in vivo
Settings: for weight coefficient (weight loss in comparison with the control group): one week after the start of the therapy
Method: The red colorant isolated under the above-described conditions and having the above-mentioned characteristics was subjected to a screening study for anti-cancer properties.
The tested substance was administered to mice suffering from the ascitic form of Gardner lymphosarcoma (IP-LsG). 6-(2-(2-hydroxyethyl)aminoethyl)-5,11-dioxo-5,6-dihydro-11H-indeno[1,2-c]isoquinoline hydrochloride having the summary formula C20H18N2O3.HCl was used as a reference substance.
Female C3H mice weighing 26.1 to 27.3 g were used. The animals were kept in plastic containers and fed with the NOE diet made by RATIO, s.r.o., Breclav, Czech Republic, and with potable water ad libitum. The temperature in the room was maintained, the relative humidity was 60%, and the light regimen was not regulated.
The Gardner lymphosarcoma is maintained in the ascitic form in the C3H mice by inoculating ascitic cells removed a week after the previous inoculation by puncturing the abdominal cavity. The mice are administered with 0.2 ml of the ascites diluted with an isotonic solution of sodium chloride for injections intraperitoneally 10 to 20 times. The cell material for tests is obtained by puncturing the abdominal cavity on the seventh day following inoculation. For the therapeutic test, the inoculation with the ascites diluted with an isotonic solution of sodium chloride for injections was made by administering 10^7 cells in a volume of 0.2 ml i.p. to each animal.
The C3H mice were over 6 weeks old, weighing 26.1 to 27.3 g, in groups of 10 animals, the control was-common. Two dosage groups were used for each route of administration and for one substance tested.
The dosage levels: 200 and 100 mg/kg×5 p.o. and 100 and 50 mg/kg×5 s.c. in a volume 0.2 to 0.4 ml and 0.2 to 0.4 ml p.o. (reference substance), resp. for 20 g body weight. Frequency of administration: 1× daily beginning on the first day. The tested substance was administered in a continuous pattern on the 1st to 5th days in doses given in Table 1 and the reference substance was administered p.o. once on the 1st day.
After the administration was finished, the animals were left for monitoring the survival time. The dose dependence of the survival time was evaluated in comparison with the non-administered control. Time as a biological response was currently evaluated by means of the non-parametric test according to Hájek (Fabián V.: Základní statistické metody (“Basic Statistical Methods”), NCSAV, Prague 1963).
After the experiment was complete, time in case of point estimates was evaluated using the test of identity of two means (Student t-test) under the presumption of logarithmic-normal distribution of time values and under the presumption of various unknown variances (Roth Z., Josífko M., Malý V., Trcka V.: Statistické metody v experimentální medicíne (“Statistical Methods in Experimental Medicine”); p. 278, SZN, Prague 1962). Geometrical averages were calculated from the individual values of time to death. The differences In average values in which the value of the test criterion has exceeded the critical value for the significance level of 5% were designated as statistically significant.

[1] = 100 mg/kg p.o. once on the 1st day
[2] = 200 mg/kg p.o. once on the 1st day

Cl.O=C1c2ccccc2-c2c1c1ccccc1c(=O)n2CCNCCO [reference, 6-(2-(2-hydroxyethyl)aminoethyl)-5,11-dioxo-5,6-dihydro-11H-indeno[1,2-c]isoquinoline hydrochloride]
median of time to death [1]: >48.5 days | survival LTS (number of animals surviving on day 65) [1]: 5/10 | weight coefficient (weight loss in comparison with the control group) [1]: −6.67% | median of time to death [2]: >65.0 days | survival LTS (number of animals surviving on day 65) [2]: 10/10 | weight coefficient (weight loss in comparison with the control group) [2]: −14.63%
